In patent publication US20170176436A1, “METHODS (AMACR)” (UNIVERSITY OF BATH, priority 2014, published 2017):
Values belong to the molecule of their own block, whether it stands above or below them.

What was measured:
Human AMACR [1] = target: T1, Human AMACR (Homo sapiens, UniProt Q9UHK6); experiment: AMACR-catalysed elimination reaction of 3-fluoro-2-methylacyl-CoA esters, monitored by 1H and 19F NMR; type: biochemical
T1 construct: inferred only from purification by metal-chelate chromatography; made in house; host or cells: E. coli Rosetta2 (DE3)
T1 sequence (Q9UHK6 1-382): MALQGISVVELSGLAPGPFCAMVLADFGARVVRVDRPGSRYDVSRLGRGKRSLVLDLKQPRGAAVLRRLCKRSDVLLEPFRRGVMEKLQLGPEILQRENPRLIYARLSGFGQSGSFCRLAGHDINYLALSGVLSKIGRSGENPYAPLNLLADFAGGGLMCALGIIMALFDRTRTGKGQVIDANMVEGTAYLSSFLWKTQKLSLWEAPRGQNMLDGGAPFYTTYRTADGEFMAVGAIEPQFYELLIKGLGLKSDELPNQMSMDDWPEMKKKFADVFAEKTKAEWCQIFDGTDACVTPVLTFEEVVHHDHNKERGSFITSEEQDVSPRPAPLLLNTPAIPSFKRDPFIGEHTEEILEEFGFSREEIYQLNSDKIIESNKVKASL
Experimental: (§1) Human AMACR was expressed in E. coli Rosetta2 (DE3) at 22° C. overnight shaking at 220 r.p.m.^1 Cells (˜2 g) were lysed using the ‘one shot’ in ˜30 mL buffer supplemented with 250u benzonase (Novagen) and stirred with 1.5% (w/v) N-lauroyl-sarcosine at 4° C. for 1 hour. Following centrifugation, enzyme was purified by metal-chelate chromatography, dialysed into 20 mM NaH2PO4—NaOH, pH 7.4 and stored at −80° C.^1,2
(§2) Assays were conducted in buffer containing ^2H2O and 100 μM acyl-CoA substrate as previously described, with negative controls contain heat-inactivated enzyme. ±-Fenoprofenoyl-CoA or 2-methyldecanoyl-CoA was used as known substrates.^1,2 Assays were quenched by heating to 50° C. for 10 minutes before ^1H NMR analysis (500.13 MHz). Conversion of substrates was quantified by conversion of the 2-Me doublet at ca. 1.0 p.p.m. into a singlet.^1,2 Kinetic data was analysed as previously described^1,2 and parameters were obtained using SigmaPlot 12 with the Direct Linear Plot^3,4 and non-linear fitting of Michaelis-Menten parameters.
(§3) The 3S and 3R stereoisomers of the 3-fluoro-2-methylacyl-CoA esters were then incubated with AMACR and the reaction was monitored by ^1H and ^19F NMR. Interconversion of 3S and 3R by chiral inversion was expected to be observed. […] The synthetic product compound was produced from the E-acid, which had the alkene proton at 6.92 p.p.m., whilst the Z-isomer has an alkene proton at 6.09 p.p.m. in the ^1H NMR spectrum. The presence of fluoride was observed as a characteristic signal at −120 p.p.m. in the ^19F spectrum. Increasing amounts of the unsaturated product compound and inorganic fluoride were observed upon incubation of either 3S or 3R with AMACR for longer times. This reaction was not observed in negative controls containing heat-inactivated enzyme. […] This observed irreversibility of the elimination reaction probably results from the high levels of hydration of the fluoride anion.

[2] = target: T2, human recombinant AMACR 1A (Homo sapiens, UniProt Q9UHK6); experiment: Measurement of inhibitor potency using the elimination assay (1H NMR); type: biochemical
T2 construct: made in house
T2 sequence (Q9UHK6 1-382): T1 sequence (Q9UHK6 1-382)
Experimental: Assays were performed as previously described in a total volume of […] in the presence of ^2H2O. using human recombinant AMACR 1A^2. In the following table inhibitor at 100 μM was incubated with enzyme for 10 minutes at room temperature. The reaction was initiated by addition of a stock solution of substrate (2S,3R-3-fluoro-2-methyldecanoyl-CoA) to a final concentration of 100 μM, followed by incubation at 30° C. for 1 hour. The reaction was terminated by heating at ca. 55° C. for 10 minutes. The cooled reaction mixture analysed by ^1H NMR by the appearance of the unsaturated product peak at ca. 1.75 ppm and comparison to the residual substrate peak at 1.1 ppm.^5 Assays were compared to a positive control (no inhibitor) and conversion levels are corrected for levels in negative controls (boiled enzyme). The data in the table is the average of two […] repeats.
Similar assays were also conducted where inhibitor and substrate were added to the enzyme simultaneously.

Human AMACR [3] = target: T1, Human AMACR; experiment: AMACR chiral inversion reaction of a known substrate, 1H NMR assay; type: biochemical
Experimental: as §1, §2

[4] = target: T2, human recombinant AMACR 1A; experiment: Colorimetric assay for AMACR, 96-well plate, absorbance at 354 nm; type: biochemical
Experimental: Based on this elimination reaction, a colorimetric assay was developed. […] 2,4-dintrophenol was chosen as the leaving group as the pKa of the acid is similar to that of HF.
The elimination reaction is shown in Reaction Scheme 2 below:
The above assay was transferred into a 96-well plate format with the extent of reaction monitored by absorbance at 354 nm. The reaction was carried out in Na2HPO4—NaOH, pH 7.4 in a total volume of 100 μL containing 8.05 μg (0.17 nmoles) of human recombinant AMACR 1A.
The kinetics assay was carried out in a 96 well plate. Substrate stock solutions (at 2× the final concentration) were prepared by serial dilution in a total volume of 150 μL in phosphate buffer (as already described). This solution (50 μL) was transferred into […], such that three identical wells were prepared. The reaction was initiated by adding a 2× stock solution of enzyme (50 μL per well) to the substrate, mixing and measuring the change in absorbance at 354 nm over a 15 minute time course, with data collected every 60 seconds. The reaction was conducted at ambient room temperature, ca. 25° C. The final concentrations of substrate (in the assay, after adding the enzyme) were: 256.3, 180.9, 113.9, 75.9, 50.6, 33.8, 22.5, 15.0 μM.
Rates were determined by plotting the absorbance vs. time in Microsoft Excel. The initial rate was used before the rate starts to reduce due to substrate depletion and other reasons. The rate in absorbance units/min was derived by fitting a straight line to the points and determining the slope from the y=mx+c equation.
The data was converted into nmol/min/mg using the extinction coefficient,^8 the pathlength (calculated by the plate-reader based on the volume of the reaction; 0.33 cm), and the amount of enzyme determined by UV-visible spectroscopy.^1 Kinetic constants were derived using SigmaPlot 12 with the enzyme kinetics macro function. Fitting assumed a single substrate per active site, two active sites per dimer (one active sites per protein molecule), with three repeats of each rate. […] Kinetic data was also calculated using the Direct Linear Plot^3,4 A similar method (with a different enzyme) has also been described.^10

[5] = substrate: CCCCCCCCC(C)C(=O)SCCNC(=O)CCNC(=O)[C@H](O)C(C)(C)COP(=O)(O)OP(=O)(O)OC[C@H]1O[C@@H](n2cnc3c(N)ncnc32)[C@H](O)[C@@H]1OP(=O)(O)O; experiment: AMACR chiral inversion reaction of a known substrate, 1H NMR assay; type: biochemical, human; details: other: chiral inversion reaction; pH 7.4
Experimental: as §1, §2

[6] = substrate: CCCCCCC[C@@H](F)[C@@H](C)C(=O)SCCNC(=O)CCNC(=O)[C@H](O)C(C)(C)COP(=O)(O)OP(=O)(O)OC[C@H]1O[C@@H](n2cnc3c(N)ncnc32)[C@H](O)[C@@H]1OP(=O)(O)O; experiment: AMACR-catalysed elimination reaction of 3-fluoro-2-methylacyl-CoA esters, monitored by 1H and 19F NMR; type: biochemical, human; details: other: elimination reaction; Direct Linear Plot; 1H NMR; pH 7.4
Experimental: as §1, §2, §3

[7] = elimination reaction, Direct Linear Plot, 1H NMR
[8] = inhibitor and substrate added to the enzyme simultaneously, enzyme 0.12 mg/mL
[9] = inhibitor 100 μM incubated with enzyme 10 minutes at room temperature before substrate, enzyme 0.06 mg/mL, substrate 2S,3R-3-fluoro-2-methyldecanoyl-CoA 100 μM, 30° C. 1 hour
[10] = elimination of 2,4-dinitrophenoxide, pH 7.4, ca. 25° C., absorbance 354 nm

Vmax (Human AMACR [1]; [7]): ~50.6 nmol·min^−1·mg polypeptide^−1
background conversion in negative controls (non-enzymatic elimination) (Human AMACR [1]; negative controls with heat-inactivated enzyme): significant background conversion
Molecule: CCCCCCC[C@@H](F)[C@@H](C)C(=O)SCCNC(=O)CCNC(=O)[C@H](O)C(C)(C)COP(=O)(O)OP(=O)(O)OC[C@H]1O[C@@H](n2cnc3c(N)ncnc32)[C@H](O)[C@@H]1OP(=O)(O)O [Compound 11, (2R,3R)-3-Fluoro-2-methyldecanoyl-CoA]

Average reduction in conversion [2, 8]: 13.6%
Molecule: CCCCCCCC[C@@H](C)C(=O)SCCNC(=O)CCNC(=O)[C@H](O)C(C)(C)COP(=O)(O)OP(=O)(O)OC[C@H]1O[C@@H](n2cnc3c(N)ncnc32)[C@H](O)[C@@H]1OP(=O)(O)O [R-2-methyldecanoyl-CoA]

Average reduction in conversion [2, 9]: 14.5%
Average reduction in conversion [2, 8]: 11%
Molecule: CC(C)Cc1ccc(C(C)C(=O)SCCNC(=O)CCNC(=O)C(O)C(C)(C)COP(=O)(O)OP(=O)(O)OCC2OC(n3cnc4c(N)ncnc43)C(O)C2OP(=O)(O)O)cc1 (stereo not shown) [Ibuprofenoyl-CoA]

Average reduction in conversion [2, 9]: 4.7%
Molecule: COc1ccc2cc(C(C)C(=O)SCCNC(=O)CCNC(=O)C(O)C(C)(C)COP(=O)(O)OP(=O)(O)OCC3OC(n4cnc5c(N)ncnc54)C(O)C3OP(=O)(O)O)ccc2c1 (stereo not shown) [Naproxenoyl-CoA]

Average reduction in conversion [2, 8]: 7.2%
Vmax (Human AMACR [3]): 39.3 nmol·min^−1·mg^−1 polypeptide
Molecule: CCCCCCCCC(C)C(=O)SCCNC(=O)CCNC(=O)[C@H](O)C(C)(C)COP(=O)(O)OP(=O)(O)OC[C@H]1O[C@@H](n2cnc3c(N)ncnc32)[C@H](O)[C@@H]1OP(=O)(O)O (stereo partly shown) [S-2-methyldecanoyl-CoA]

Average reduction in conversion [2, 9]: 4.5%
Molecule: CC(C(=O)SCCNC(=O)CCNC(=O)C(O)C(C)(C)COP(=O)(O)OP(=O)(O)OCC1OC(n2cnc3c(N)ncnc32)C(O)C1OP(=O)(O)O)c1cccc(C(=O)c2ccccc2)c1 (stereo not shown) [Ketoprofenoyl-CoA]

Molecule: CC(COc1ccc([N+](=O)[O-])cc1[N+](=O)[O-])C(=O)SCCNC(=O)CCNC(=O)[C@H](O)C(C)(C)COP(=O)(O)OP(=O)(O)OC[C@H]1O[C@@H](n2cnc3c(N)ncnc32)[C@H](O)[C@@H]1OP(=O)(O)O (mixture of isomers) [colorimetric substrate, racemic 3-(2,4-dinitrophenoxy)-2-methyl-propanoyl-CoA]
conversion efficiency relative to anti-3-fluoro-2-methyldecanoyl-CoA, as judged by kcat/Km [4]: ~35%
colour produced on incubation with active AMACR ([4]; absent in negative controls using heat-inactivated enzyme): intense yellow colour
Km [4, 10]: 18 µM
Vmax [4, 10]: 27.61 nmol/min/mg
kcat [4, 10]: 0.023 s⁻¹

Km (Human AMACR [1]; [7]): 21 µM
Vmax (Human AMACR [1]; [7]): 96.5 nmol·min^−1·mg polypeptide^−1
kcat (Human AMACR [1]; [7]): 0.0758 s⁻¹
Molecule: CCCCCCC[C@@H](F)[C@H](C)C(=O)SCCNC(=O)CCNC(=O)[C@H](O)C(C)(C)COP(=O)(O)OP(=O)(O)OC[C@H]1O[C@@H](n2cnc3c(N)ncnc32)[C@H](O)[C@@H]1OP(=O)(O)O [Compound 5, (2S,3R)-3-Fluoro-2-methyldecanoic-CoA]

Average reduction in conversion [2, 9]: 3.5%
Molecule: CC(C(=O)SCCNC(=O)CCNC(=O)C(O)C(C)(C)COP(=O)(O)OP(=O)(O)OCC1OC(n2cnc3c(N)ncnc32)C(O)C1OP(=O)(O)O)c1ccc(-c2ccccc2)c(F)c1 (stereo not shown) [Flurbiprofenoyl-CoA]

Average reduction in conversion [2, 9]: 14.1%
Molecule: CC(C(=O)SCCNC(=O)CCNC(=O)C(O)C(C)(C)COP(=O)(O)OP(=O)(O)OCC1OC(n2cnc3c(N)ncnc32)C(O)C1OP(=O)(O)O)c1cccc(Oc2ccccc2)c1 (stereo not shown) [Fenoprofenoyl-CoA]

B1: Human AMACR (Homo sapiens) (protein)
chain: T1 sequence (Q9UHK6 1-382)
notes: inferred only from purification by metal-chelate chromatography; made in house; host or cells: E. coli Rosetta2 (DE3)
Km [5]: 277 µM
kcat [5]: 0.0310 s⁻¹
kcat/Km [5]: 112 M⁻¹ s⁻¹
Km [6]: 40 µM
kcat [6]: 0.0397 s⁻¹
kcat/Km [6]: 993 M⁻¹ s⁻¹
